Assay results taken from patent US6124115A, “Production and use of isolated type 5 17β-hydroxysteroid dehydrogenase” (Endorecherche Inc., priority 1995, dated 2000).

Target: T1, human type 5 17β-HSD (Homo sapiens, UniProt P42330)
T1 construct: encodes a protein having 323 amino acids with a calculated molecular weight of 36,844 daltons; expressed in transfected cells; host or cells: human embryonal kidney 293 cells (ATCC CRL 1573), transient transfection with pCMV vector
T1 sequence (P42330 1-323 H5Q): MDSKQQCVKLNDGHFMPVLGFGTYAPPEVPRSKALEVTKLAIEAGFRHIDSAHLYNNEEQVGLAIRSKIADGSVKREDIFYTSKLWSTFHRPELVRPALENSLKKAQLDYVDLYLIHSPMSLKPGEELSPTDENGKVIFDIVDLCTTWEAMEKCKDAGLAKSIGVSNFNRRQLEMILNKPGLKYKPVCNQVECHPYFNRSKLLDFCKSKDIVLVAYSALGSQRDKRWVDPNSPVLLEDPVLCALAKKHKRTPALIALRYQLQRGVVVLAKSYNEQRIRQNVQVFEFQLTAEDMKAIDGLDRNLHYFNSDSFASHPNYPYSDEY
Test: Assay of enzymatic activity (substrate specificity) in 293 cells transfected with human type 5 17β-HSD
Assay type: cell-based
Conditions: 0.1 μM 14C-labeled substrate, 1 hour incubation, transfected embryonal kidney (293) cells, FIG. 1A
Procedure: The concentration of each substrate was 0.1 μM. […] The substrates, progesterone (P) and Δ^4 -dione, were added at a concentration of 0.1 μM;
The vectors were transfected using the calcium phosphate procedure described by Kingston, R. E., In: Current Protocols in Molecular Biology, Ausubel et al. eds., pp. 9.1.1-9.1.9, John Wiley & Sons, N.Y. (1987) and used 1 to 10 μg of recombinant plasmid DNA per 10^6 cells. The total amount of DNA is kept at 10 μg of plasmid DNA per 10^6 cells by completing with pCMV plasmid without insert. The cells were initially plated at 10^4 cells/cm^2 in Falcon® culture flasks and grown in Dulbecco's modified Eagle's medium containing 10% (vol/vol) fetal bovine serum (hyclone, Logan, Utah) under a humidified atmosphere of air/CO^2 (95%/5%) at 37° C. and supplemented with 2 mM L-glutamine, 1 mM sodium pyruvate, 100 IU penicillin/ml, and 100 μbg streptomycin sulfate/ml.
See also Lachance et al., J. Biol. Chem., 265:20469-20475 (1990). […] After incubation for 1 hour, the steroids were extracted twice with 2 ml of ether. The organic phase was pooled and evaporated to dryness. The steroids were solubilized in 50 μl of dichloromethane, applied to a Silica gel 60 thin layer chromatography (TLC) plate (Merck, Darmstad, Germany) and then separated by migration in the toluene-acetone (4:1) solvent system (Luu-The, V. et al., J. Invest. Dennatol., 102:221-226 (1994) which is herein incorporated by reference).
As described above, the enzymatic activity of the type 5 17β-HSD was evaluated by transfecting 293 cells with vectors which included the gene encoding human type 5 17β-HSD.

In the case of `C[C@]12CCC(=O)C=C1CC[C@@H]1[C@@H]2CC[C@]2(C)C(=O)CC[C@@H]12` [Δ^4dione, 4-androstene-3,17-dione], the “17β-HSD activity (Δ4-dione converted to testosterone)” value is reported as “high”.

`CC(=O)[C@H]1CC[C@H]2[C@@H]3CCC4=CC(=O)CC[C@]4(C)[C@H]3CC[C@]12C` [progesterone] was tested, and the “reductive 20α-HSD activity (progesterone transformed to 20α-OH-P)” value was “high”.

For `C[C@]12CC[C@@H]3c4ccc(O)cc4CC[C@H]3[C@@H]1CC[C@@H]2O` [E2, estradiol], the “ability of the enzyme to transform E1 and E2” value was “negligible”.

For `C[C@]12CCC(=O)C[C@@H]1CC[C@@H]1[C@@H]2CC[C@]2(C)[C@@H](O)CC[C@@H]12` [DHT, dihydrotestosterone], the “3α-HSD activity (transformation of DHT to 5α-androstane-3α,17β-diol)” value was “negligible”.
